Data from patent publication US20230113037A1 (Bayer Aktiengesellschaft, priority 2019, published 2023).
“And” between values parts separate entries of the source, which are not always exact repeats. Equal values may be shown once. Read-outs that look alike come from different tables or passages of the source.

Legend:
AHR [1] = biological target: T1, AHR (Homo sapiens, UniProt P35869); assay: In vitro assay 1: antagonism in human cell line (AHR transactivation, firefly luciferase reporter, kynurenic acid prestimulated); format: cell-based; settings: AHR Antagonism Human IC50 [M]
T1 construct: U87 MG glioblastoma cells (ATCC #HTB-14) endogenously expressing AHR; endogenous in cells; host or cells: U87 MG glioblastoma cells (ATCC #HTB-14)
T1 sequence (P35869 11-848): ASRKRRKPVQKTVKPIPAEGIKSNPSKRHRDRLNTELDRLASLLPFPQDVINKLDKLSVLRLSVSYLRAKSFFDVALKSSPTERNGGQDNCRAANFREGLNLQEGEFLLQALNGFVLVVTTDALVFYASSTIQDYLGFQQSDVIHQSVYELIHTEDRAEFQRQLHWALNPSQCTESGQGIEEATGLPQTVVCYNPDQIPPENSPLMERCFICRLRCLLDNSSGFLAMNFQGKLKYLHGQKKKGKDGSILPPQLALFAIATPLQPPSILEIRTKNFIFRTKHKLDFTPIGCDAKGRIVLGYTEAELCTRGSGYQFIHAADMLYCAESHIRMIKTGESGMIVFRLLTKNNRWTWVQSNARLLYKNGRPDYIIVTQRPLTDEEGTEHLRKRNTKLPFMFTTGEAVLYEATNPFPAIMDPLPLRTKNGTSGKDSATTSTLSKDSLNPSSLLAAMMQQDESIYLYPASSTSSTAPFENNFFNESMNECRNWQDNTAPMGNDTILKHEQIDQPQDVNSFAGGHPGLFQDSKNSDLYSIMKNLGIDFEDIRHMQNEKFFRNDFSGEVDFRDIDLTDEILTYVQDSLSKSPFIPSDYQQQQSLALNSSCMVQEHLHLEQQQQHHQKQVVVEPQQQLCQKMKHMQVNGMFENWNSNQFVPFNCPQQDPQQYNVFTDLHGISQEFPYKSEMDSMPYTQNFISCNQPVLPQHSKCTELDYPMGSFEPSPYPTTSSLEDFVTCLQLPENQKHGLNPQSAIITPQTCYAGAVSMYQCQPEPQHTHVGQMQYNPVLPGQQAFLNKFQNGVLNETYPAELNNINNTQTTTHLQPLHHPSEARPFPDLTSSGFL
Outline: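 U87 MG + DRE-firefly/constitutive-Renilla stable reporters; kynurenic acid prestim; dual-luc read; Renilla = tox; normalized vs pos/neg controls (pos: 150 μM KYNA + 5 μM staurosporine).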

AHR [2] = biological target: T2, AHR (Mus musculus, UniProt P30561); assay: In vitro assay 3: antagonism in mouse cell line (AHR transactivation, firefly luciferase reporter, kynurenic acid prestimulated); format: cell-based; settings: 200 μM kynurenic acid, 20 hours, read-out: AHR Antagonism Mouse IC50
T2 sequence (P30561 1-848 P471L/N533S/M589L): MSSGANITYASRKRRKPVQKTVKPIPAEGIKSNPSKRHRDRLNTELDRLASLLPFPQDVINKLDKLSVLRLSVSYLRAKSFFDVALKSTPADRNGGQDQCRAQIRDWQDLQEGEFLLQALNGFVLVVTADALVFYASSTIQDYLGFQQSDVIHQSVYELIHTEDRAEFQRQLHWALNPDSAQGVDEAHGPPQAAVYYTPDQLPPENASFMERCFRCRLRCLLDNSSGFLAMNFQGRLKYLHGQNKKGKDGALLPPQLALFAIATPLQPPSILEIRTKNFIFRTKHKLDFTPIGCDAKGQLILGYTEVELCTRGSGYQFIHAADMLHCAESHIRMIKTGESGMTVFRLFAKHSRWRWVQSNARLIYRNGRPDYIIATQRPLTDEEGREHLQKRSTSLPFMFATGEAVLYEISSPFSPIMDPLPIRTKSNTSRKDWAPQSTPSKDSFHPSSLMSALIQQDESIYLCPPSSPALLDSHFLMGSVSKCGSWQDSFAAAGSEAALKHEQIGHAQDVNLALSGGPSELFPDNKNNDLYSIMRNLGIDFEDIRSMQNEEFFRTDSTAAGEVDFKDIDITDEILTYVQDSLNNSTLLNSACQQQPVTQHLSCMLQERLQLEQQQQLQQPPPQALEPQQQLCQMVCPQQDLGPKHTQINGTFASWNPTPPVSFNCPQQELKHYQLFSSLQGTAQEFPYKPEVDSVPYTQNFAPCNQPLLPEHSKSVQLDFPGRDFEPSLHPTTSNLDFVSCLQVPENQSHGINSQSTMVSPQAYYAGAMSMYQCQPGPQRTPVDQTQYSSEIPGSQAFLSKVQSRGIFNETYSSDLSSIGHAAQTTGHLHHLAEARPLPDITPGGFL
Outline: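 Cells were first stimulated with kynurenic acid, then exposed to test compound, after which firefly luciferase from a DRE-containing AHR reporter was read out. Signal was scaled between positive and negative controls. Cells not given kynurenic acid provided the inhibition reference.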

[3] = Hepa 1c1c7 cells, firefly luciferase reporter

| Compound | IC50 (AHR [1]) [M] | IC50 (AHR [2]; mouse Hepa 1c1c7 cells) [nM] | IC50 (AHR [1]; firefly luciferase reporter) [M] | IC50 (AHR [2]; [3]) |
| --- | --- | --- | --- | --- |
| O=C1NCCNC[C@H]1Nc1nc2ccccc2c2nc(-c3ccc(Br)cc3Cl)nn12 [Example 255, (6R)-6-{[2-(4-bromo-2-chlorophenyl)[1,2,4]triazolo[1,5-c]quinazolin-5-yl]amino}-1,4-diazepan-5-one] | 4.98e-08 | 5.1 |  |  |
| CN1CC[C@@H](Nc2nc3ccccc3c3nc(-c4cccc(OC(F)(F)F)c4)nn23)C1=O [Example 312, (3R)-1-methyl-3-({2-[3-(trifluoromethoxy)phenyl][1,2,4]triazolo[1,5-c]quinazolin-5-yl}amino)pyrrolidin-2-one] | 7.19e-08 | 22 |  |  |
| COc1ccc(-c2nc3c4cccc(Br)c4nc(N[C@H](C)C(=O)N4CCO[C@H](C)C4)n3n2)cc1 [Example 907, (2R)-2-{[7-bromo-2-(4-methoxyphenyl)[1,2,4]triazolo[1,5-c]quinazolin-5-yl]amino}-1-[(2R)-2-methylmorpholin-4-yl]propan-1-one] |  |  | 9.93e-10 | 1.39 nM |
| COc1cccc(-c2nc3c4ccccc4nc(N[C@@H]4CCCCNC4=O)n3n2)c1 [Example 75, (3R)-3-{[2-(3-methoxyphenyl)[1,2,4]triazolo[1,5-c]quinazolin-5-yl]amino}azepan-2-one] | 2.57e-09 | 0.359 |  |  |
| COc1cccc(-c2nc3c4ccccc4nc(N[C@H](C)C(=O)NC4CC4)n3n2)c1 [Example 106, N-cyclopropyl-N^2-[2-(3-methoxyphenyl)[1,2,4]triazolo[1,5-c]quinazolin-5-yl]-D-alaninamide] | 7.97e-09 | 4.91 |  |  |
| CCNC(=O)C(CC)Nc1nc2ccccc2c2nc(-c3cccc(OC(F)(F)F)c3)nn12 (single isomer, unassigned) [Example 319, N-ethyl-2-({2-[3-(trifluoromethoxy)phenyl][1,2,4]triazolo[1,5-c]quinazolin-5-yl}amino)butanamide] | 1.74e-08 | 0.502 |  |  |
| Cn1cc(-c2nc3c4cccc(Br)c4nc(N[C@H]4CS(=N)(=O)CCNC4=O)n3n2)cn1 (single isomer, unassigned) [Example 856] |  |  | > 2e-05 | 19600 nM and > 20000 nM |
| COC(=O)N1CCN(C(=O)[C@@H](C)Nc2nc3c(Br)cccc3c3nc(-c4ccc(OC)cc4)nn23)CC1 [Example 894, methyl 4-{N-[7-bromo-2-(4-methoxyphenyl)[1,2,4]triazolo[1,5-c]quinazolin-5-yl]-D-alanyl}piperazine-1-carboxylate] |  |  | 2.01e-09 | 1.33 nM |
| COc1ccc(-c2nc3c4cccc(Br)c4nc(N[C@H](C)C(=O)N4CCN(C)CC4)n3n2)cc1 [Example 788, (2R)-2-{[7-bromo-2-(4-methoxyphenyl)[1,2,4]triazolo[1,5-c]quinazolin-5-yl]amino}-1-(4-methylpiperazin-1-yl)propan-1-one] |  |  | 4.64e-10 | 2.08 nM |
| CSc1cccc2c1nc(N[C@@H]1CCCCNC1=O)n1nc(-c3cnn(C(C)C)c3)nc21 [Example 771, (3R)-3-({7-(methylsulfanyl)-2-[1-(propan-2-yl)-1H-pyrazol-4-yl][1,2,4]triazolo[1,5-c]quinazolin-5-yl}amino)azepan-2-one] | 1.02e-08 | 104 |  |  |
| COCc1cccc2c1nc(N[C@@H]1CCCCNC1=O)n1nc(-c3cnn(C)c3)nc21 [Example 1004, (3R)-3-{[7-(methoxymethyl)-2-(1-methyl-1H-pyrazol-4-yl)[1,2,4]triazolo[1,5-c]quinazolin-5-yl]amino}azepan-2-one] |  |  | 1.9e-08 | 266 nM |
| NC(=O)[C@@H](CO)Nc1nc2ccccc2c2nc(-c3ccccc3OC(F)(F)F)nn12 [Example 468, N^2-{2-[2-(trifluoromethoxy)phenyl][1,2,4]triazolo[1,5-c]quinazolin-5-yl}-D-serinamide] | 6.73e-08 | 42.7 |  |  |
| O=C1NCCCC[C@H]1Nc1nc2ccc(F)cc2c2nc(-c3ccccc3F)nn12 [Example 234, (3R)-3-{[9-fluoro-2-(2-fluorophenyl)[1,2,4]triazolo[1,5-c]quinazolin-5-yl]amino}azepan-2-one] | 1.7e-09 | 1.4 |  |  |
| COc1ccc(-c2nc3c4cccc(Br)c4nc(N[C@H](C)C(=O)NCCN4CCCCC4)n3n2)cc1 [Example 895, N^2-[7-bromo-2-(4-methoxyphenyl)[1,2,4]triazolo[1,5-c]quinazolin-5-yl]-N-[2-(piperidin-1-yl)ethyl]-D-alaninamide] |  |  | 1.18e-08 | 17.3 nM |
| Cn1cc(-c2nc3c4c(Br)cccc4nc(N[C@@H]4CCCCNC4=O)n3n2)cn1 [Example 165, (3R)-3-{[10-bromo-2-(1-methyl-1H-pyrazol-4-yl)[1,2,4]triazolo[1,5-c]quinazolin-5-yl]amino}azepan-2-one] | 1.65e-08 | 98.6 |  |  |
| CCCNC(=O)[C@@H](C)Nc1nc2ccccc2c2nc(-c3ccccc3OC(F)(F)F)nn12 [Example 465, N-propyl-N^2-{2-[2-(trifluoromethoxy)phenyl][1,2,4]triazolo[1,5-c]quinazolin-5-yl}-D-alaninamide] | 1.34e-08 | 3.87 |  |  |
| O=C1NCCNC[C@H]1Nc1nc2c(Cl)cccc2c2nc(-c3ccc(F)cc3)nn12 [Example 420, (6R)-6-{[7-chloro-2-(4-fluorophenyl)[1,2,4]triazolo[1,5-c]quinazolin-5-yl]amino]-1,4-diazepan-5-one] | 9.36e-10 | 0.887 |  |  |
| CC(C)n1cc(-c2nc3c4cccc(Br)c4nc(N[C@H]4CNCCNC4=O)n3n2)cn1 [Example 984, (6S)-6-({7-bromo-2-[1-(propan-2-yl)-1H-pyrazol-4-yl][1,2,4]triazolo[1,5-c]quinazolin-5-yl}amino)-1,4-diazepan-5-one] |  |  | 3.84e-08 | 41.2 nM |
| COc1cccc(-c2nc3c4cc(F)ccc4nc(NC4CCCNC4=O)n3n2)c1 (single isomer, unassigned) [Example 189, 3-{[9-fluoro-2-(3-methoxyphenyl)[1,2,4]triazolo[1,5-c]quinazolin-5-yl]amino}piperidin-2-one] | 2.61e-07 | 114 |  |  |
| CC[C@H](Nc1nc2c(C(F)(F)F)cccc2c2nc(-c3ccnn3C)nn12)C(N)=O [Example 805, (2S)-2-{[2-(1-methyl-1H-pyrazol-5-yl)-7-(trifluoromethyl)[1,2,4]triazolo[1,5-c]quinazolin-5-yl]amino}butanamide] |  |  | 1.9e-07 | 70.4 nM |
| Cn1nccc1-c1nc2c3cccc(C(F)(F)F)c3nc(N[C@@H]3CNCCNC3=O)n2n1 [Example 946, (6R)-6-{[2-(1-methyl-1H-pyrazol-5-yl)-7-(trifluoromethyl)[1,2,4]triazolo[1,5-c]quinazolin-5-yl]amino}-1,4-diazepan-5-one] |  |  | 8.75e-09 | 2.16 nM |
| CS(=N)(=O)c1cccc(-c2nc3c4ccccc4nc(N[C@@H]4CCCCNC4=O)n3n2)c1 (single isomer, unassigned) [Example 659] | 1.62e-06 | 4500 |  |  |
